Converted amounts (≈) assume the structure as drawn.
Columns and labels:
Format in all cases: functional
[1] = system: Staphylococcus epidermidis; test: Antibacterial activity against methicillin-sensitive Staphylococcus epidermidis ATCC 12228 after 18 hrs by CLSI broth microdilution method; conditions: ATCC 12228, 18 h
Staphylococcus aureus [2] = test: Antibacterial activity against methicillin-sensitive Staphylococcus aureus ATCC 29213 after 18 hrs by CLSI broth microdilution method; conditions: ATCC 29213, 18 h
Staphylococcus aureus [3] = test: Antibacterial activity against methicillin-resistant Staphylococcus aureus 12-33 after 18 hrs by CLSI broth microdilution method; conditions: 12-33, 18 h
Enterococcus faecalis [4] = test: Antibacterial activity against vancomycin-sensitive Enterococcus faecalis ATCC 29212 after 18 hrs by CLSI broth microdilution method; conditions: ATCC 29212, 18 h
Enterococcus faecium [5] = test: Antibacterial activity against vancomycin-resistant Enterococcus faecium ATCC 700221 after 18 hrs by CLSI broth microdilution method; conditions: ATCC 700221, 18 h
Enterococcus faecium [6] = test: Antibacterial activity against vancomycin-sensitive Enterococcus faecium 12-3 after 18 hrs by CLSI broth microdilution method; conditions: 12-3, 18 h
Escherichia coli [7] = test: Antibacterial activity against extended-spectrum beta-lactamase deficient Escherichia coli ATCC 25922 after 18 hrs by CLSI broth microdilution method; conditions: ATCC 25922, 18 h
Escherichia coli [8] = test: Antibacterial activity against extended-spectrum beta-lactamase harboring Escherichia coli 12-15 after 18 hrs by CLSI broth microdilution method; conditions: 12-15, 18 h
Klebsiella pneumoniae [9] = test: Antibacterial activity against extended-spectrum beta-lactamase harboring Klebsiella pneumoniae ATCC 700603 after 18 hrs by CLSI broth microdilution method; conditions: Klebsiella pneumoniae, 700603, 18 h
Klebsiella pneumoniae [10] = test: Antibacterial activity against new delhi metallo-beta-lactamase-1 harboring Klebsiella pneumoniae ATCC BAA-2146 after 18 hrs by CLSI broth microdilution method; conditions: ATCC BAA-2146, 18 h
Klebsiella pneumoniae [11] = test: Antibacterial activity against extended-spectrum beta-lactamase harboring Klebsiella pneumoniae 12-8 after 18 hrs by CLSI broth microdilution method; conditions: 12-8, 18 h
Pseudomonas aeruginosa [12] = test: Antibacterial activity against Pseudomonas aeruginosa ATCC 27853 after 18 hrs by CLSI broth microdilution method; conditions: ATCC 27853, 18 h
[13] = system: Acinetobacter calcoaceticus; test: Antibacterial activity against Acinetobacter calcoaceticus ATCC 19606 after 18 hrs by CLSI broth microdilution method; conditions: ATCC 19606, 18 h
Enterobacter cloacae [14] = test: Antibacterial activity against Enterobacter cloacae ATCC 43560 after 18 hrs by CLSI broth microdilution method; conditions: ATCC 43560, 18 h
Proteus mirabilis = test: Antibacterial activity against Proteus mirabilis 12-6 after 18 hrs by CLSI broth microdilution method; conditions: 12-6, 18 h
Escherichia coli [15] = test: Antibacterial activity against extended-spectrum beta-lactamase harboring Escherichia coli 13-1 after 18 hrs by CLSI broth microdilution method; conditions: 13-1, 18 h
Klebsiella pneumoniae [16] = test: Antibacterial activity against carbapenem-resistant Klebsiella pneumoniae 12-12 after 18 hrs by CLSI broth microdilution method; conditions: 12-12, 18 h
[17] = system: Acinetobacter calcoaceticus; test: Antibacterial activity against new delhi metallo-beta-lactamase-1 harboring Acinetobacter calcoaceticus 13-1 after 18 hrs by CLSI broth microdilution method; conditions: 13-1, 18 h
Klebsiella aerogenes = test: Antibacterial activity against carbapenem-resistant Enterobacter aerogenes 11-4 after 18 hrs by CLSI broth microdilution method; conditions: 11-4, 18 h
Enterobacter cloacae [18] = test: Antibacterial activity against new delhi metallo-beta-lactamase-1 harboring Enterobacter cloacae CDC1000654 after 18 hrs by CLSI broth microdilution method; conditions: CDC1000654, 18 h
[19] = system: Staphylococcus epidermidis; test: Antibacterial activity against methicillin-sensitive Staphylococcus epidermidis 12-6 after 18 hrs by CLSI broth microdilution method; conditions: 12-6, 18 h
Staphylococcus aureus [20] = test: Antibacterial activity against methicillin-resistant Staphylococcus aureus ATCC 33591 after 18 hrs by CLSI broth microdilution method; conditions: ATCC 33591, 18 h
Staphylococcus aureus [21] = test: Antibacterial activity against methicillin-sensitive Staphylococcus aureus 15 after 18 hrs by CLSI broth microdilution method; conditions: Staphylococcus aureus, 15, 18 h
Enterococcus faecalis [22] = test: Antibacterial activity against vancomycin-resistant Enterococcus faecalis ATCC 51299 after 18 hrs by CLSI broth microdilution method; conditions: ATCC 51299, 18 h
Enterococcus faecalis [23] = test: Antibacterial activity against vancomycin-sensitive Enterococcus faecalis 12-5 after 18 hrs by CLSI broth microdilution method; conditions: 12-5, 18 h
Enterococcus faecium [24] = test: Antibacterial activity against vancomycin-resistant Enterococcus faecium 12-1 after 18 hrs by CLSI broth microdilution method; conditions: 12-1, 18 h
Escherichia coli [25] = test: Antibacterial activity against extended-spectrum beta-lactamase deficient Escherichia coli 12-14 after 18 hrs by CLSI broth microdilution method; conditions: 12-14, 18 h
Klebsiella pneumoniae [26] = test: Antibacterial activity against extended-spectrum beta-lactamase deficient Klebsiella pneumoniae 7 after 18 hrs by CLSI broth microdilution method; conditions: Klebsiella pneumoniae, 7, 18 h
Klebsiella pneumoniae [27] = test: Antibacterial activity against extended-spectrum beta-lactamase deficient Klebsiella pneumoniae 12-4 after 18 hrs by CLSI broth microdilution method; conditions: 12-4, 18 h
Pseudomonas aeruginosa [28] = test: Antibacterial activity against Pseudomonas aeruginosa PAO1 after 18 hrs by CLSI broth microdilution method; conditions: PAO1, 18 h
Serratia marcescens = test: Antibacterial activity against Serratia marcescens ATCC 21074 after 18 hrs by CLSI broth microdilution method; conditions: ATCC 21074, 18 h
Proteus vulgaris = test: Antibacterial activity against Proteus vulgaris ATCC 29905 after 18 hrs by CLSI broth microdilution method; conditions: ATCC 29905, 18 h
[29] = system: Stenotrophomonas maltophilia; test: Antibacterial activity against Stenotrophomonas maltophilia ATCC 13636 after 18 hrs by CLSI broth microdilution method; conditions: ATCC 13636, 18 h
Citrobacter freundii = test: Antibacterial activity against Citrobacter freundii ATCC 43864 after 18 hrs by CLSI broth microdilution method; conditions: ATCC 43864, 18 h
Staphylococcus aureus [30] = test: Antibacterial activity against methicillin-resistant Staphylococcus aureus ATCC 33591 infected in ICR mouse assessed as mouse survival at 2 mg/kg, iv administered at 1 and 5 hrs post infection and measured on day 7 day post last dose (reference value: 0%); conditions: ATCC 33591, iv
Staphylococcus aureus [31] = test: Antibacterial activity against methicillin-resistant Staphylococcus aureus ATCC 33591 infected in ICR mouse assessed as mouse survival at 2.5 mg/kg, iv administered at 1 and 5 hrs post infection and measured on day 7 day post last dose (reference value: 0%); conditions: ATCC 33591, iv
Staphylococcus aureus [32] = test: Antibacterial activity against methicillin-resistant Staphylococcus aureus ATCC 33591 infected in ICR mouse assessed as mouse survival at 3 mg/kg, iv administered at 1 and 5 hrs post infection and measured on day 7 day post last dose (reference value: 0%); conditions: ATCC 33591, iv
Staphylococcus aureus [33] = test: Antibacterial activity against methicillin-resistant Staphylococcus aureus ATCC 33591 infected in ICR mouse assessed as mouse survival at 3.5 mg/kg, iv administered at 1 and 5 hrs post infection and measured on day 7 day post last dose (reference value: 0%); conditions: ATCC 33591, iv

`CN(C)C(=N)c1ccc2cc(-c3ccc(-c4cc5ccc(C(=N)N(C)C)cc5[nH]4)cc3)[nH]c2c1` was tested, and the MIC [1] was 0.125 µg/mL (≈ 0.279 µM), the MIC (Staphylococcus aureus [2]) was 0.25 µg/mL (≈ 0.557 µM) and the MIC (Staphylococcus aureus [3]) was 0.25 µg/mL (≈ 0.557 µM). For the same compound, the MIC (Enterococcus faecalis [4]) was 1 µg/mL (≈ 2.23 µM), the MIC (Enterococcus faecium [5]) was 1 µg/mL (≈ 2.23 µM) and the MIC (Enterococcus faecium [6]) was 1 µg/mL (≈ 2.23 µM). It also gave an MIC (Escherichia coli [7]) of 1 µg/mL (≈ 2.23 µM), an MIC (Escherichia coli [8]) of 2 µg/mL (≈ 4.46 µM) and an MIC (Klebsiella pneumoniae [9]) of 4 µg/mL (≈ 8.92 µM). It also gave an MIC (Klebsiella pneumoniae [10]) of 2 µg/mL (≈ 4.46 µM), an MIC (Klebsiella pneumoniae [11]) of 4 µg/mL (≈ 8.92 µM) and an MIC (Pseudomonas aeruginosa [12]) of 4 µg/mL (≈ 8.92 µM). It also gave an MIC [13] of 8 µg/mL (≈ 17.8 µM), an MIC (Enterobacter cloacae [14]) of 1 µg/mL (≈ 2.23 µM) and an MIC (Proteus mirabilis) of 8 µg/mL (≈ 17.8 µM). It also gave an MIC (Escherichia coli [15]) of 2 µg/mL (≈ 4.46 µM), an MIC (Klebsiella pneumoniae [16]) of 16 µg/mL (≈ 35.7 µM) and an MIC [17] of 4 µg/mL (≈ 8.92 µM). For the same compound, the MIC (Klebsiella aerogenes) was 8 µg/mL (≈ 17.8 µM), the MIC (Enterobacter cloacae [18]) was 4 µg/mL (≈ 8.92 µM) and the MIC [19] was 0.125 µg/mL (≈ 0.279 µM). For the same compound, the MIC (Staphylococcus aureus [20]) was 0.25 µg/mL (≈ 0.557 µM), the MIC (Staphylococcus aureus [21]) was 0.25 µg/mL (≈ 0.557 µM) and the MIC (Enterococcus faecalis [22]) was 1 µg/mL (≈ 2.23 µM). The MIC (Enterococcus faecalis [23]) was 2 µg/mL (≈ 4.46 µM), the MIC (Enterococcus faecium [24]) was 0.5 µg/mL (≈ 1.11 µM) and the MIC (Escherichia coli [25]) was 1 µg/mL (≈ 2.23 µM). It also gave an MIC (Klebsiella pneumoniae [26]) of 2 µg/mL (≈ 4.46 µM), an MIC (Klebsiella pneumoniae [27]) of 4 µg/mL (≈ 8.92 µM) and an MIC (Pseudomonas aeruginosa [28]) of 64 µg/mL (≈ 143 µM). The MIC (Serratia marcescens) was 16 µg/mL (≈ 35.7 µM), the MIC (Proteus vulgaris) was 4 µg/mL (≈ 8.92 µM) and the MIC [29] was 8 µg/mL (≈ 17.8 µM). It also gave an MIC (Citrobacter freundii) of 2 µg/mL (≈ 4.46 µM), a survival at 2 mg/kg (Staphylococcus aureus [30]) of 20% and a survival at 2.5 mg/kg (Staphylococcus aureus [31]) of 50%. The survival at 3 mg/kg (Staphylococcus aureus [32]) was 60% and the survival at 3.5 mg/kg (Staphylococcus aureus [33]) was 80%.

— ChEMBL document CHEMBL4229379, “Synthesis and structure-activity relationship of novel bisindole amidines active against MDR Gram-positive and Gram-negative bacteria” (Eur J Med Chem, 2018)
